Data set [1] is classed as physicochemical. As to the method: Eine Lösung von 0,5 g 3-Dimethylaminomethylenamino-Rifamycin S in 5 ml Methanol wird mit 2 ml einer 10 % (G/V) wässerigen Natriumbicarbonatlösung und 5 ml einer 10 % (G/V) Lösung von K4[Fe(CN)6] Kaliumferrocyanid) in Wasser versetzt, die Lösung 3 Minuten intensiv gerührt und mit je 20 ml Wasser und Chloroform verdünnt. Die Chloroformphase wird abgetrennt und die wässerige Phase noch zweimal mit Chloroform extrahiert. Die vereinigten Chloroformextrakte werden getrocknet und eingedampft, wodurch 3-Dimethylaminomethylenamino-Rifamycin SV als gelbes Pulver resultiert.

Data set [2] is classed as physicochemical. Here is the method:
Eine unter Stickstoff gerührte Suspension von 15,50 g 4-Dimethylamino-imidazolo[4,5-c]rifamycin SV (1) in 150 ml Wasser wird tropfenweise mit 20,0 ml einer 1-N-wässrigen Natriumhydroxid-Lösung (0,987 Aequivalent) versetzt. Die resultierende gelbgefärbte Lösung wird filtriert und das Filtrat der Gefriertrocknung unterworfen. […] Für C40H51N4O11Na (MG 786,85) berechnet 2,92% Na; gefunden 2,87% Na.
Eine gerührte Suspension von 8,75 g 4-(4-Isobutylpiperazinyl)-imidazolo[4,5-c]rifamycin SV (4) in 165 ml Wasser wird mit 10,0 ml 1-normaler wässriger Salzsäure (0,985 Aequivalent) versetzt. Das Gemisch wird filtriert, und das Filtrat der Gefriertrocknung unterworfen. Das erhaltene 4-(4-Isobutylpiperazinyl)-imidazolo[4,5-c]rifamycin SV-Hydrochlorid bildet ein wasserlösliches, gelbes amorphes Pulver. Für C46H63N5O11 · HC1 (898,49) berechnet: 3,95% Cl, gefunden: 4,08% Cl.
The source holds these as a separate data set.

A further data set deals with Escherichia coli 2018. Description: Agar dilution MIC in DST agar (Ericsson and Sherris). The format is cell-based. The following applies: Escherichia coli, 2018, in vitro, read-out: MIC Esch. 2018. Summed up:
(§1)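 MIC (µg/ml) by agar dilution per Ericsson and Sherris in DST agar; lowest concentration still inhibiting growth of the test organism.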
For orientation: Agar dilution tests growth on a series of plates holding different concentrations.

In a further data set the test system is Escherichia coli 205. Described as above. The format is cell-based. The following applies: Escherichia coli, 205, in vitro, read-out: MIC Esch. 205. Summed up: as §1
Another data set relates to Proteus morganii 1518. The data set is described as above. The format is cell-based. The conditions noted are these: Morganella morganii, 1518, in vitro, read-out: MIC Prot. 1518. Put shortly:
as §1

A further data set deals with Proteus morganii 2359. The description is as above. The following applies: Morganella morganii, 2359, in vitro, read-out: MIC Prot. 2359. In kind it is cell-based. Put shortly:
as §1

For data set [3], the system named is Pseudomonas aeruginosa K 799/61. The data set is described as above. In kind it is cell-based. The conditions noted are these: Pseudomonas aeruginosa, K799/61, read-out: MIC Pseu. 799. Put shortly:
as §1

In data set [4] the test system is Salmonella Typhimurium 277. The description is as above. In kind it is cell-based. The conditions noted are these: Salmonella enterica, TYPHIMURIUM, in vitro, read-out: MIC Salm. 277. Put shortly: as §1
Data set [5] concerns Staphylococcus aureus 10B. Described as above. In kind it is cell-based. The following applies: Staphylococcus aureus, 10B, in vitro, read-out: MIC Staph. 10B. Summed up:
as §1

Data set [6] concerns Staphylococcus aureus 2999. The data set is described as above. The following applies: Staphylococcus aureus, 2999, in vitro, read-out: MIC Staph. 2999. The format is cell-based. Put shortly:
as §1

For data set [7], the system named is Mycobacterium tuberculosis. The data set is described as above. The format is cell-based. The conditions noted are these: Mycobacterium tuberculosis, in vitro, read-out: MIC Myc. tub.
The subject of a further data set is Staphylococcus aureus. Briefly: In vitro antibacterial activity against gram-positive cocci. The format is cell-based. The conditions noted are these: at (at or below) the lowest limit of the tested concentration range, 0,005 y/ml. The text has this:
(§2) Die neuen erfindungsgemässen Verbindungen der Formel I zeichnen sich vor allem durch ihre wertvollen pharmakologischen Eigenschaften aus: so besitzen sie gemäss den Resultaten in vitro antibiotische, insbesondere antibakterielle Eigenschaften, wie z.B. einerseits gegen grammpositive Kokken, wie Staphylococcus aureus, (im getesteten Konzentrationsbereich 0,005 bis 128 y/ml),andererseits gegen grammnegative Stäbchenbakterien, wie Enterobacteriaceae, z.B. Escherichia coli, Pseudomonas aeruginosa und Proteus morganii (im getesteten Konzentrationsbereich von 1 bis 64 y/ml), sowie gegen Mycobacterium tuberculosis (im getesteten Konzentrationsbereich von 0,48 bis 1,9 y/ml). […] (Für die Testresultate siehe auch Tabelle -1.)
(§3) Auch die neuen erfindungsgemässen Verbindungen der Formeln V und VI zeichnen sich durch analoge wertvolle pharmakologische Eigenschaften aus, d.h. sie besitzen gemäss den Resultaten in vitro antibiotische, insbesondere antibakterielle Eigenschaften, die sich bezüglich des Anwendungsbereichs sowie der getesteten effektiven Konzentrationen den Verbindungen der Formel I praktisch gleichen. […] (Für die Testresultate siehe auch Tabelle 2.)

The test system of data set [8] is Enterobacteriaceae, z.B. Escherichia coli, Pseudomonas aeruginosa und Proteus morganii. Briefly: In vitro antibacterial activity against gram-negative rods. The format is cell-based. The conditions noted are these: within the stated concentration range, 1 bis 64 y/ml.
Text: as §2, §3

Usually MIC stands for the smallest concentration in the dilution series that meets the test's criterion for growth inhibition.

In brackets after ≈: the same amount, converted by molar mass.

On to “3-Dimethylaminomethylenamino-Rifamycin SV [Beispiel 78A]”, for which, in data set [1], the “Stabilität beim Stehen in einer Lösung” value was “sehr schnell wieder zum Chinon durch Luftsauerstoffoxidation umgewandelt”.

As for “4-Dimethylamino-imidazolo[4,5-c]rifamycin SV-Natriumsalz”, the “Löslichkeit in Wasser” value in data set [2] is “in Wasser klar lösliches”.

Take `COC1C=COC2(C)Oc3c(C)c(O)c4c(O)c(c5[nH]c(N6CCN(CC(C)C)CC6)nc5c4c3C2=O)NC(=O)C(C)=CC=CC(C)C(O)C(C)C(O)C(C)C(OC(C)=O)C1C.Cl` (centres unmarked) [4-(4-Isobutylpiperazinyl)-imidazolo[4,5-c]rifamycin SV-Hydrochlorid]: the “Löslichkeit in Wasser” value in data set [2] is given as “wasserlösliches”.

Regarding `COC1C=COC2(C)Oc3c(C)c(O)c4c(O)c(c5nc(N(C)C)[nH]c5c4c3C2=O)NC(=O)C(C)=CC=CC(C)C(O)C(C)C(O)C(C)C(OC(C)=O)C1C` (centres unmarked) [Verbindung 1, 4-Dimethylamino-imidazolo[4,5-c]rifamycin SV], the MIC amounted to 4 µg/mL (≈ 5.23 µM) with Escherichia coli 2018; 8 µg/mL (≈ 10.5 µM) in the data set with Escherichia coli 205; 4 µg/mL (≈ 5.23 µM) in the data set on Proteus morganii 1518; 8 µg/mL (≈ 10.5 µM) with Proteus morganii 2359; 2 µg/mL (≈ 2.61 µM) in data set [3]; 16 µg/mL (≈ 20.9 µM) in data set [4]. Besides, the MIC turned out to be 0.005 µg/mL (≈ 0.00654 µM) in data set [5], 0.005 µg/mL (≈ 0.00654 µM) in data set [6] and 0.97 µg/mL (≈ 1.27 µM) in [7]. Besides, in the data set with Staphylococcus aureus, the “Hemmwirkung auf Staphylococcus aureus” value is recorded as “deutliche Hemmwirkung”. Further, the “Hemmung der Enterobacterien” value in data set [8] is on record as “wirksam hemmen”.

On to `COC1C=COC2(C)Oc3c(C)c(O)c4c(O)c(c5nc(N6CCOCC6)[nH]c5c4c3C2=O)NC(=O)C(C)=CC=CC(C)C(O)C(C)C(O)C(C)C(OC(C)=O)C1C` (centres unmarked) [Verbindung 2, 4-Morpholino-imidazolo[4,5-c]rifamycin SV], for which the MIC in the data set on Escherichia coli 2018 was 16 µg/mL (≈ 19.8 µM); in the data set on Escherichia coli 205 it was 16 µg/mL (≈ 19.8 µM); in the data set on Proteus morganii 1518, 4 µg/mL (≈ 4.96 µM); in the data set with Proteus morganii 2359, 4 µg/mL (≈ 4.96 µM); in [3] it was 8 µg/mL (≈ 9.91 µM); in [4], 32 µg/mL (≈ 39.7 µM). In addition, the MIC was 0.01 µg/mL (≈ 0.0124 µM) in data set [5], 0.005 µg/mL (≈ 0.0062 µM) in data set [6] and 1.9 µg/mL (≈ 2.35 µM) in [7]. In the data set on Staphylococcus aureus, the “Hemmwirkung auf Staphylococcus aureus” value is “deutliche Hemmwirkung”. Moreover, the “Hemmung der Enterobacterien” value in data set [8] is recorded as “wirksam hemmen”.

Regarding `COC1C=COC2(C)Oc3c(C)c(O)c4c(O)c(c5nc(N6CCN(C)CC6)[nH]c5c4c3C2=O)NC(=O)C(C)=CC=CC(C)C(O)C(C)C(O)C(C)C(OC(C)=O)C1C` (centres unmarked) [Verbindung 3, 4-(4-Methylpiperazinyl)-imidazolo[4,5-c]rifamycin SV], the MIC with Escherichia coli 2018 stood at 16 µg/mL (≈ 19.5 µM); in the data set on Escherichia coli 205 it was 16 µg/mL (≈ 19.5 µM); in the data set with Proteus morganii 1518, 16 µg/mL (≈ 19.5 µM); in the data set with Proteus morganii 2359, 16 µg/mL (≈ 19.5 µM); in data set [3], 4 µg/mL (≈ 4.88 µM); in data set [4], 32 µg/mL (≈ 39 µM). For the same molecule, the MIC came to 0.01 µg/mL (≈ 0.0122 µM) in data set [5], 0.01 µg/mL (≈ 0.0122 µM) in data set [6] and 0.97 µg/mL (≈ 1.18 µM) in data set [7]. Further, the “Hemmwirkung auf Staphylococcus aureus” value with Staphylococcus aureus is “deutliche Hemmwirkung”. Also, in data set [8], the “Hemmung der Enterobacterien” value is given as “wirksam hemmen”.

For `COC1C=COC2(C)Oc3c(C)c(O)c4c(O)c(c5nc(N6CCN(CC(C)C)CC6)[nH]c5c4c3C2=O)NC(=O)C(C)=CC=CC(C)C(O)C(C)C(O)C(C)C(OC(C)=O)C1C` (centres unmarked) [Verbindung 4, 4-(4-Isobutylpiperazinyl)-imidazolo[4,5-c]rifamycin SV], the MIC in the data set with Escherichia coli 2018 was 4 µg/mL (≈ 4.64 µM); in the data set on Escherichia coli 205, 4 µg/mL (≈ 4.64 µM); with Proteus morganii 1518, 4 µg/mL (≈ 4.64 µM); in the data set on Proteus morganii 2359 it was 4 µg/mL (≈ 4.64 µM); in data set [3], 8 µg/mL (≈ 9.28 µM); in [4], 8 µg/mL (≈ 9.28 µM). The MIC in [5] was 0.005 µg/mL (≈ 0.0058 µM); in [6], 0.005 µg/mL (≈ 0.0058 µM); in [7], 0.97 µg/mL (≈ 1.13 µM). Further, the “Hemmwirkung auf Staphylococcus aureus” value with Staphylococcus aureus is reported as “deutliche Hemmwirkung”. Moreover, in [8], the “Hemmung der Enterobacterien” value is “wirksam hemmen”.

For the origin of these results see patent EP0049683A2, “Imidazo-rifamycines, process for their preparation, pharmaceutical preparations containing them and their use” (CIBA-GEIGY AG, priority 1980, dated 1982).
